This data set is classed as physicochemical. The method, then: The stability of more than 95% pure polymorph A on exposure to air and heat is compared to the stability of amorphous pentamycin (containing more than 95% pure pentamycin) as follows:
Amorphous pentamycin is prepared by precipitation from a solution of more than 95% pure pentamycin in dimethylsulfoxide by adding acetonitrile, followed by filtering and drying the precipitate.
More than 95% pure polymorph A of pentamycin is prepared by crystallization from a solution of more than 95% pure pentamycin in dimethylsulfoxide by adding ethyl acetate, followed by filtering and drying the precipitate.
A sample of the thus obtained amorphous pentamycin and a sample of the thus obtained polymorph A are incubated in an open vessel about six days at 60° C. and additionally 2 weeks at 40° C. The process of degradation is monitored by HPLC, measuring the decrease of the purity relative to the inital state at zero time (t0) set on 100%. After the incubation the amount of degradation of amorphous pentamycin is 11% whereas the amount of degradation of polymorph A is only 1%.

On to `CCCCC[C@@H](O)[C@H]1C(=O)O[C@H](C)[C@@H](O)/C=C/C=C/C=C/C=C/C=C(\C)[C@@H](O)[C@H](O)[C@H](O)C[C@H](O)C[C@H](O)C[C@H](O)C[C@H](O)C[C@@H]1O` [polymorph A, pentamycin], for which the “amount of degradation (decrease of the purity relative to the initial state at zero time t0 set on 100%)” value was 1%.
As to `CCCCC[C@@H](O)[C@H]1C(=O)O[C@H](C)[C@@H](O)/C=C/C=C/C=C/C=C/C=C(\C)[C@@H](O)[C@H](O)[C@H](O)C[C@H](O)C[C@H](O)C[C@H](O)C[C@H](O)C[C@@H]1O` [amorphous pentamycin, pentamycin], the “amount of degradation (decrease of the purity relative to the initial state at zero time t0 set on 100%)” value came to 11%.

The record behind these values is patent US9090582B2, “Highly pure pentamycin” (Biolotus Biotechnology AG, priority 2008, dated 2015).
